The values below come from patent US20210246115A1 (Bioimics AB, priority 2017, published 2021).

Test [1] has as its system Staphylococcus aureus subsp. aureus (ATCC29213). As to the kind of experiment: MIC, broth microdilution (CLSI), Staphylococcus aureus ATCC29213. The format is cell-based. Particulars: for S. aureus ATCC 29213 MIC: Table XIII, hydrochloride salt; for MIC: Staphylococcus aureus.
Test [2] relates to Escherichia coli (ATCC25922). Description: MIC, broth microdilution (CLSI), Escherichia coli. Particulars: for MIC: Escherichia coli, ATCC25922, read-out: E. coli ATCC 25922 MIC, Table XIII.
For test [3], the system named is E. coli RNase P RNA, M1 RNA. As to the kind of experiment: Inhibition of bacterial RNase P activity, IC50 determination (cleavage of pATSerUG by M1 RNA). The test is classed as biochemical. The following applies: NI: No inhibition.
The mark [4] stands for this setting: ATCC29213, read-out: S. aureus ATCC 29213 MIC, Table XIII.
Setting [5] is: ATCC29213, Table XIII, read-out: S. aureus ATCC 29213 MIC.

In brackets after ≈: the same amount, converted by molar mass. Counter-ions that a name gives are not always drawn. Like-named read-outs stand apart in the source and are kept apart here.

Take `Cc1cccc(C(CCNC2CCC(N)CC2)c2cn(C3CCCCC3)c3ccccc23)c1` (stereo not shown) [Compound 308, N1-(3-(1-cyclohexyl-1H-indol-3-yl)-3-(m-tolyl)propyl)cyclohexane-1,4-diamine hydrochloride salt]: the “S. aureus ATCC 29213 MIC” value in test [1] stood at 4 mg/L. In test [2], the MIC turned out to be 4 mg/L. In addition, the IC50 in test [3] (hydrochloride salt) came out at 29 µM.

For the compound `Cc1cccc(C(CCNC2CCNCC2)c2cn(C3CCCCC3)c3ccccc23)c1` (stereo not shown) [Compound 309, N-(3-(1-cyclohexyl-1H-indol-3-yl)-3-(m-tolyl)propyl)piperidin-4-amine hydrochloride salt], the MIC in test [1] (setting [4]) amounted to 8 mg/L; in test [2], 4 mg/L. For the same compound, in test [3], it took 39 µM to reach half-maximal inhibition (IC50).

As for `Cc1cccc(C(CCNCCCN)c2cn(C3CCCCC3)c3ccccc23)c1.Cl.Cl` (stereo not shown) [Compound 310, N1-(3-(1-cyclohexyl-1H-indol-3-yl)-3-(m-tolyl)propyl)propane-1,3-diamine hydrochloride salt], the MIC in test [1] (setting [5]) and in test [2] was 4 mg/L throughout. In addition, the IC50 in test [3] (hydrochloride salt) was found to be 18 µM.

With `Cc1cccc(C(CCNCCCN)c2cn(C3CCNCC3)c3ccccc23)c1.Cl.Cl.Cl` (stereo not shown) [Compound 322, N1-(3-(1-(piperidin-4-yl)-1H-indol-3-yl)-3-(m-tolyl)propyl)propane-1,3-diamine hydrochloride salt], the MIC in test [1] (setting [5]) was 16 mg/L; in test [2], greater than 128 mg/L. In test [3], this compound came in with an IC50 of 120 µM.

On to `Cc1cccc(C(CCNC2CCNCC2)c2cn(C3CC4CCC3C4)c3ccccc23)c1` (stereo not shown) [Compound 323, hydrochloride salt], for which the MIC came to 8 mg/L in test [1] (setting [4]) and 4 mg/L in test [2]. The IC50 in test [3] worked out at 42 µM.

As to `Cc1cccc(C(CCN[C@H]2CC[C@H](N)CC2)c2cn(C3CCCC3)c3ccccc23)c1.Cl.Cl` (stereo partly drawn) [Compound 332, (1R,4R)-N1-(3-(1-cyclopentyl-1H-indol-3-yl)-3-(m-tolyl)propyl) cyclohexane-1,4-diamine hydrochloride salt], the MIC in test [1] (setting [5]) and in test [2] was 8 mg/L each time. For the same compound, the IC50 in test [3] worked out at 39 µM.

Regarding `Cc1cccc(C(CCNC2CCNCC2)c2cn(C3CCCC3)c3ccccc23)c1.Cl.Cl` (stereo not shown) [Compound 333, N-(3-(1-cyclopentyl-1H-indol-3-yl)-3-(m-tolyl)propyl)piperidin-4-amine hydrochloride salt], the MIC turned out to be 16 mg/L in test [1] (setting [5]) and 8 mg/L in test [2]. In test [3], this compound showed an IC50 of 89 µM.

As for `Cc1cccc(C(CCNCCCN)c2cn(C3CCCC3)c3ccccc23)c1.Cl.Cl` (stereo not shown) [Compound 334, N1-(3-(1-cyclopentyl-1H-indol-3-yl)-3-(m-tolyl)propyl)propane-1,3-diamine hydrochloride salt], the MIC in test [1] (setting [5]) and in test [2] was 8 mg/L in each case. The same compound registered an IC50 in test [3] of 68 µM.

`Cc1cccc(C(CCNCCCN)c2cn(C3CC4CCC3C4)c3ccccc23)c1.Cl.Cl` (stereo not shown) [Compound 341, N1-(3-(1-(bicyclo[2.2.1]heptan-2-yl)-1H-indol-3-yl)-3-(m-tolyl)propyl)propane-1,3-diamine hydrochloride salt]: the MIC is 8 mg/L in test [1] (setting [5]) and 4 mg/L in test [2]. In test [3], this compound yielded an IC50 of 32 µM.

In the case of `Cl.Cl.NCCCNCCC(c1ccccc1)c1cn(C2CCCCC2)c2ccccc12` (stereo not shown) [Compound 343, N1-(3-(1-cyclohexyl-1H-indol-3-yl)-3-phenylpropyl) propane-1,3-diamine hydrochloride salt], the figures for the MIC in test [1] (setting [5]) and in test [2] were 8 mg/L and 4 mg/L, respectively. In addition, it took 64 µM to reach half-maximal inhibition in test [3] (IC50).

Take `Cl.Cl.NCCCNCCC(c1cccc(F)c1)c1cn(C2CCCCC2)c2ccccc12` (stereo not shown) [Compound 344, N1-(3-(1-cyclohexyl-1H-indol-3-yl)-3-(3-fluorophenyl)propyl) propane-1,3-diamine hydrochloride salt]: the MIC worked out at 8 mg/L in test [1] (setting [5]) and 4 mg/L in test [2]. In addition, 52 µM corresponded to half-maximal inhibition in test [3] (IC50).

As for `Cc1ccccc1C(CCNCCCN)c1cn(C2CCCCC2)c2ccccc12.Cl.Cl` (stereo not shown) [Compound 345, N1-(3-(1-cyclohexyl-1H-indol-3-yl)-3-(o-tolyl)propyl)propane-1,3-diamine hydrochloride salt], the MIC in test [1] (setting [5]) amounted to 8 mg/L; in test [2], 4 mg/L. The compound also gave an IC50 in test [3] of 41 µM.

Regarding `CNCCCNCCC(c1cccc(C)c1)c1cn(C2CCCCC2)c2ccccc12.Cl.Cl` (stereo not shown) [Compound 368, N1-(3-(1-cyclohexyl-1H-indol-3-yl)-3-(m-tolyl)propyl)-N3-methylpropane-1,3-diamine hydrochloride], the MIC in test [1] (setting [5]) and in test [2] was 8 mg/L throughout.

As for `Cl.Cl.NCCCNCCC(c1cncc2ccccc12)c1cn(C2CCCCC2)c2ccccc12` (stereo not shown) [Compound 369, N1-(3-(1-cyclohexyl-1H-indol-3-yl)-3-(isoquinolin-4-yl)propyl)propane-1,3-diamine hydrochloride], the MIC in test [1] (setting [5]) and in test [2] was 8 mg/L in each case.

With `Cl.Cl.N[C@H]1CC[C@H](NCCC(c2cn(C3CCCCC3)c3ccccc23)C2CCCCC2)CC1` (stereo partly shown) [Compound 378], the MIC in test [1] (setting [5]) came to 4 mg/L; in test [2], 8 mg/L.

In the case of `Cc1cccc(C(CCNCC(O)CN)c2cn(C3CCCCC3)c3ccccc23)c1` (stereo not shown) [Compound 386, 1-amino-3-((3-(1-cyclohexyl-1H-indol-3-yl)-3-(m-tolyl)propyl)amino) propan-2-ol], the MIC in test [1] (setting [5]) was determined as 16 mg/L (≈ 38.1 µM); in test [2] it was 8 mg/L (≈ 19.1 µM).

Regarding `Cc1cccc(C(CCNCCCN)c2cn(C3CCCCC3)c3ccc(C(=O)O)cc23)c1` (stereo not shown) [Compound 387, 3-(3-((3-aminopropyl)amino)-1-(m-tolyl)propyl)-1-cyclohexyl-1H-indole-5-carboxylic acid compound with 2,2,2-trifluoroacetaldehyde (1:2)], the MIC in test [1] (setting [5]) was 128 mg/L (≈ 286 µM); in test [2], greater than 128 mg/L.

Regarding `Cc1cccc(C(CCOC2OC(CO)C(O)C(O)C2O)c2cn(C3CCCCC3)c3ccccc23)c1` (stereo not shown) [Compound 388, 2-(3-(1-cyclohexyl-1H-indol-3-yl)-3-(m-tolyl)propoxy)-6-(hydroxymethyl) tetrahydro-2H-pyran-3,4,5-triol], the values for the MIC in test [1] (setting [5]) and in test [2] were 16 mg/L (≈ 31.4 µM) and greater than 128 mg/L, respectively.

On to `N#Cc1ccc2c(c1)c(C1CCCC(NCCCN)C1)cn2C1CCCCC1` (stereo not shown) [Compound 389, 3-(3-((3-aminopropyl)amino)cyclohexyl)-1-cyclohexyl-1H-indole-5-carbonitrile], for which the MIC was determined as 16 mg/L (≈ 42.3 µM) in test [1] (setting [5]) and 32 mg/L (≈ 84.5 µM) in test [2].

With `Cc1cccc(C(CCNCC2(CN)CC2)c2cn(C3CCCCC3)c3ccccc23)c1` (stereo not shown) [Compound 390, N-((1-(aminomethyl)cyclopropyl)methyl)-3-(1-cyclohexyl-1H-indol-3-yl)-3-(m-tolyl)propan-1-amine], the MIC in test [1] (setting [5]) and in test [2] was 8 mg/L (≈ 18.6 µM) each time.

Regarding `Cc1cccc(C(CCNCC2OC(CO)C(O)C(O)C2O)c2cn(C3CCCCC3)c3ccccc23)c1` (stereo not shown) [Compound 391, 2-(((3-(1-cyclohexyl-1H-indol-3-yl)-3-(m-tolyl)propyl)amino)methyl)-6-(hydroxymethyl) tetrahydro-2H-pyran-3,4,5-triol], the MIC in test [1] (setting [4]) is 64 mg/L (≈ 122 µM); in test [2], 128 mg/L (≈ 245 µM).

Regarding `Cc1cccc(C(CCNC2CCC(N)CC2)c2cn(C3CCCCC3)c3ccccc23)c1` [Compound 392, (1S,4S)- -N1-(3-(1-cyclohexyl-1H-indol-3-yl)-3-(m-tolyl)propyl) cyclohexane-1,4-diamine hydrochloride salt], the “S. aureus ATCC 29213 MIC” value in test [1] was determined as 8 mg/L. Also, the “E. coli ATCC 25922 MIC” value in test [2] (Table XIII, hydrochloride salt) was found to be 8 mg/L.

Regarding `COc1cccc(C(CCNC2CCC(N)CC2)c2cn(C3CCCCC3)c3ccc(C#N)cc23)c1` (stereo not shown) [Compound 400, 3-(3-(((1s,4s)-4-aminocyclohexyl)amino)-1-(3-methoxyphenyl)propyl)-1-cyclohexyl-1H-indole-5-carbonitrile hydrochloride salt], the MIC in test [1] (setting [4]) and in test [2] was 16 mg/L each time.

On to `COc1cccc(C(CCNC2CCNCC2)c2cn(C3CCCCC3)c3ccc(C#N)cc23)c1` (stereo not shown) [Compound 401, 1-cyclohexyl-3-(1-(3-methoxyphenyl)-3-(piperidin-4-ylamino)propyl)-1H-indole-5-carbonitrile hydrochloride salt], for which the MIC in test [1] (setting [4]) and in test [2] was 16 mg/L throughout.

For the compound `COc1cccc(C(CCNCCCN)c2cn(C3CCCCC3)c3ccc(C#N)cc23)c1` (stereo not shown) [Compound 402, 3-(3-((3-aminopropyl)amino)-1-(3-methoxyphenyl)propyl)-1-cyclohexyl-1H-indole-5-carbonitrile hydrochloride salt], the MIC in test [1] (setting [4]) worked out at 8 mg/L; in test [2] it was 16 mg/L.

As for `Cc1cccc(C(CCNCC2CNCCO2)c2cn(C3CCCCC3)c3ccc(Br)cc23)c1` (stereo not shown) [Compound 405, 3-(5-bromo-1-cyclohexyl-1H-indol-3-yl)-N-(morpholin-2-ylmethyl)-3-(m-tolyl)propan-1-amine hydrochloride salt], the MIC was found to be 8 mg/L in test [1] (setting [4]) and 16 mg/L in test [2].

Consider `Cl.Cl.N#Cc1ccc2c(c1)c(C(CCNC1CCNCC1)C1CCCCC1)cn2C1CCCCC1` (stereo not shown) [Compound 406, 1-cyclohexyl-3-(1-cyclohexyl-3-(piperidin-4-ylamino)propyl)-1H-indole-5-carbonitrile salt], for which the MIC in test [1] (setting [5]) and in test [2] was 8 mg/L each time.

For `Cc1cccc(CC(CCNCCCN)c2cn(C3CCCCC3)c3ccccc23)c1.Cl.Cl` (stereo not shown) [Compound 419, N1-(3-(1-cyclohexyl-1H-indol-3-yl)-4-(m-tolyl)butyl)propane-1,3-diamine hydrochloride salt], the MIC in test [1] (setting [5]) and in test [2] was 8 mg/L in each case.

As to `Cl.Cl.NCCCNCCC(c1cn(C2CCCCC2)c2ccccc12)C1CC1` (stereo not shown) [Compound 422, N1-(3-(1-cyclohexyl-1H-indol-3-yl)-3-cyclopropylpropyl) propane-1,3-diamine hydrochloride salt], the MIC is 32 mg/L in test [1] (setting [5]) and 16 mg/L in test [2].
